Data on 24 compounds can be found in US5550124A, “Use of peripheral-type benzodiazpine sites for treatment of CNS trauma or disease” (priority 1991, dated 1996).

pIC50: −log10 of the molar value. “Also recorded” adds a separate entry of the source. Where two headings read alike, the source gives them in different places. Where only a bound is given, the exact number is not on record here.

One series deals with platelet aggregation. The settings on record: cited from earlier work.
The test system of series [1] is NMDA receptor. The following applies: in vivo; cited from earlier work.
Series [2] has as its target T1, peripheral-type BZ receptors (Rattus norvegicus, UniProt P16257).
T1 construct: displacement of ^3 H-RO5-4864 in brain homogenates; from tissue; host or cells: brain homogenates
Kind of series: Competitive binding assay, displacement of 3H-Ro5-4864 in brain homogenates. The source says:
Sprengel, R., et al., "Molecular cloning and expression of cDNA encoding a peripheral-type benzodiazepine receptor," J. Biol. Chem., 264:20415-20421 (1989).
Some of these compounds were further tested in in vivo studies.
On the technique in general: Loss of bound radioactivity is the signal in a displacement assay; it reports binding, not function.

Series [3] is described as follows: Physical trauma (head injury) model, grip score 18 hours post-injury. The following applies: for effectiveness in treatment of CNS trauma/damage (in words): grip score 18 h post trauma, FIGS. 1-8. Type of series: in vivo, mice (male CF-1). From the text:
Two tests which can be readily performed are observation of grip score and observation of grip time in injured test animals. Another test for agonist activity is for decrease in mortality caused by the CNS injury. Mice can be treated to simulate CNS injury by a variety of methods: they can be deprived of oxygen by administration of KCN (Nauquier, A., et al., Arch. Int. Pharmacodyn., 249:330 (1981)) or by temporary tying-off of the carotid artery (Braughler, J. M. and Lainer, M. J., "The effects of large doses of methylprednisolone on neurologic recovery and survival in the Mongolian gerbil following three hours of unilateral carotid occlusion," CNS Trauma, 3:153-162 (1986)). Alternatively, blows can be administered to the head or the spinal cord of the test animal.
The following protocol was used:
The compound to be tested was weighed and suspended in a polyethylated castor oil solution ("Cremophore") (21% Cremaphore, 3% ethanol in 0.9% saline). The concentration of the solution was then adjusted for administration at a dose of 0.01 cc/gm body weight. For example, for a dose of 10 mg/Kg, the solution was made 1.0 mg/cc, and a 23 g mouse would receive 0.23 cc of this solution. The solution was sonicated for approximately 90 minutes, or until the compound is dissolved.
Male CF-1 mice (15-25 gm) were weighed and marked for identification purposes. Each individual mouse was restrained by grasping the dorsal skin of the neck until the mouse was still. An impounder was used to administer the trauma. The impounder consists of a weight suspended over the animal's head at a height sufficient to produce significant injury when dropped, and a means for immobilizing the animal (in this case, room to hold the animal in place). […] 62:882-887, 883. The mouse was positioned properly under the impounder, and the weight was released from its preset height (11 CM).
Immediately following injury, the mouse was placed under a heat lamp. At various times after injury, the drug was administered intravenously at the specified dose. The time of injury and the time of injection were recorded.
B) Measurement of Grip Score
Each mouse was evaluated 18 hours post-injury for neurological deficit. The delay of 18 hours provided time for any sedative effects of the compound to wear off. It also provided time for healing to occur. Mortality was also noted. A standard grip test, as described in Hall et al., J. Neurosurg. 68:456-461 (1988), was used. The apparatus consisted of a taut string suspended between two uprights, 60 cm in length and 40 cm above a padded table.
(§1) Each mouse was picked up by the tail and placed on the string. […] The tail was then released. Grip score was recorded based on the mouse's performance while on the string. The following criteria were used (taken from Hall, E. D., J. Neurosurg. 62:882-887 (1985)):
C) Statistical Analysis Results of the above test were analyzed for statistical significance using the Mann-Whitney U test. See R. V. Tallarida & R. B. Murray, MANUAL OF PHARMACOLOGIC CALCULATIONS WITH COMPUTER PROGRAMS, Springer-Verlag, N.Y., pp. 57-59 (1981). This test was used to compare each set of grip scores for a particular dose of a particular compound against the grip scores for the control group.

In series [4] the test system is NMDA receptor. The following applies: cats; cited from earlier work.
Series [5] concerns peripheral-type BZ receptor. Kind of series: Antagonism of Ro5 4864-induced improvement of grip score by PK 14105 following head injury. Type of series: in vivo, mice. The following applies: for GRIP TEST SCORE: tested 1 hour after injury.
From the text: Male CF-1 mice (15-25 gm) were weighed and marked for identification purposes. Each individual mouse was restrained by grasping the dorsal skin of the neck until the mouse was still. An impounder was used to administer the trauma. The impounder consists of a weight suspended over the animal's head at a height sufficient to produce significant injury when dropped, and a means for immobilizing the animal (in this case, room to hold the animal in place). An example of such an impounder can be found in Hall, E.D., "High Dose Glucocorticoid Treatment Improves Neurological Recovery in Head Injured Mice," J. Neurosurg. 62:882-887, 883. The mouse was positioned properly under the impounder, and the weight was released from its preset height (11 CM).
as §1
The inhibitory agonist alone does (row 2 as compared to row 1).
^a Animals were administered vehicle or PK 14105 i.v. 30 min prior to
^b Animals were administered vehicle or Ro5 4864 i.v. 5 min after hea
^c Animals were tested 1 hour after headinjury

In series [6] the target is T1, peripheral-type BZ receptors. The settings on record: # data from Wang et al., Mol. Pharmacol. 25:349-351 (1984); cited from earlier work.
The nature of series [7]: Physical trauma (head injury) model, grip score 18 hours post-injury. Type of series: in vivo, mice (male CF-1). The following applies: by extrapolation from Table 3 binding data.
For series [8] the following is noted: in vivo; cited from earlier work.

For the compound `CC(=O)Oc1ccccc1C(=O)O` [Aspirin], the “effect on platelet aggregation” value in the series on platelet aggregation is reported as “inhibit platelet aggregation”. For the compound `O=C(O)C1CN(CCCP(=O)(O)O)CCN1` (centres unmarked) [CPP], in the series with NMDA receptor [1], the adverse reactions result is “respiratory depression and elevated CO2 level”. As to `O=C1CN=C(c2ccccc2Cl)c2cc([N+](=O)[O-])ccc2N1` [Clonazepam], in series [2], the pIC50 is 5.04. For the same compound, in [3], the “effectiveness in treatment of CNS trauma/damage (in words)” value was “inactive in the treatment of CNS damage”. With `O=C(O)[C@H]1CN(C/C=C/P(=O)(O)O)CCN1` [D-CPPene], the “effect on blood pressure” value in the series with NMDA receptor [4] is “induces hypotension”.

With `CCC(C)N(C)C(=O)c1cc2ccccc2c(-c2cc([N+](=O)[O-])ccc2F)n1` (centres unmarked) [PK 14105, 1-(2-fluoro-5-nitrophenyl)-1-methyl-N(1-methyl-propyl)-3-isoquinoline carboxamide], the “GRIP TEST SCORE” value in [5] (10 mg/kg i.v. 30 min preinjury, postinjury vehicle) came out at 1.40 ± 0.28. In addition, the “effect of the antagonist on grip score (in words)” value in series [5] (antagonist alone) is “no statistically significant effect on grip score post trauma”. In addition, the “effect on agonist-induced improvement of grip score (in words)” value in [5] (antagonist with inhibitory agonist, 1 hour post-trauma) is reported as “prevents the agonist from improving grip score”. Besides, the “binding affinity to peripheral-type BZ sites (in words)” value in [2] is recorded as “very strong binding affinity”. Further, in series [2] (displacement of 3H-Ro5-4864 in brain homogenates, * data by procedure described herein, read-out: IC50), the pIC50 was 8.35. The “effectiveness in treatment of CNS trauma/damage (in words)” value in series [3] was “inactive in treating CNS damage”. The “functional class at the peripheral-type BZ receptor (in words)” value in series [3] (inferred from binding and lack of grip score effect) is “antagonist to the peripheral-type BZ receptor”. Further, the “grip scores compared with controls (in words)” value in series [3] (moderate and high doses, FIG. 8) is reported as “stay the same as those of the controls”. For the compound `CN1C(=O)CN=C(c2ccccc2Cl)c2cc(Cl)ccc21` [Ro5-3448, 2',7-Dichloro-1,3-dihydro-1-methyl-5-phenyl-2H-1,4-benzodiazepin-2-one], the pIC50 in series [6] is 7.45. For the same compound, the “effectiveness for treatment of CNS trauma or disease (in words)” value (“effectiveness for treatment” below) in [7] is on record as “effective”. In the case of `CN1C(=O)CN=C(c2ccccc2)c2ccccc21` [Ro5-3464, 1,3-Dihydro-1-methyl-5-phenyl-2H-1,4-benzodiazepin-2-one], in series [2], the negative-log IC50 (pIC50) was 5.91 and the “binding affinity to peripheral-type BZ sites (in words)” value is on record as “very high IC50 values”. The “effectiveness in treatment of CNS trauma/damage (in words)” value in [3] was “non-effective; also recorded: inactive in the treatment of CNS damage”. Take `CN1C(=O)CN=C(c2ccccc2Cl)c2ccccc21` [Ro5-4608, 2'-Chloro-1,3-dihydro-1-methyl-5-phenyl-2H-1,4-benzodiazepin-2-one]: the pIC50 in series [6] was 6.67.

On to `CN1C(=O)CN=C(c2ccc(Cl)cc2)c2cc(Cl)ccc21` [Ro5-4864, 4',7-Dichloro-1,3-dihydro-1-methyl-5-phenyl-2H-1,4-benzodiazepin-2-one], for which the “GRIP TEST SCORE” value came out at 0.93 ± 0.21 in [5] (preinjury 10 mg/kg PK 14104 (sic) plus postinjury 0.3 mg/kg Ro5 4864) and 1.84 ± 0.24 in series [5] (preinjury vehicle, 0.3 mg/kg i.v. 5 min after injury, vehicle/vehicle 1.13 ± 0.27, P<0.05). Besides, in series [3], the “effectiveness in treatment of CNS trauma/damage (in words)” value is “effective”. For the compound `CN1C(=O)CN=C(c2ccc(Cl)cc2)c2ccccc21` [Ro5-5115, 4'-Chloro-1,3-dihydro-1-methyl-5-phenyl-2H-1,4-benzodiazepin-2-one], the pIC50 in series [6] was 6.97. With `CN1C(=O)CN=C(c2ccc(F)cc2)c2ccccc21` [Ro5-5122, 4'-Fluoro-1,3-dihydro-1-methyl-5-phenyl-2H-1,4-benzodiazepin-2-one], the pIC50 in series [6] is 6.35. On to `CN1C(=O)CN=C(c2ccc(Cl)cc2)c2cc(F)ccc21` [Ro5-6524, 4'-Chloro-7-fluoro-1,3-dihydro-1-methyl-5-phenyl-2H-1,4-benzodiazepin-2-one], for which the pIC50 in [6] was 6.47. `CN1C(=O)CN=C(c2ccc(Cl)cc2)c2cc(F)ccc21` [Ro5-6531, 4'-Chloro-7-fluoro-1,3-dihydro-1-methyl-5-phenyl-2H-1,4-benzodiazepin-2-one]: in [2] (displacement of 3H-Ro5-4864 in brain homogenates, * data by procedure described herein), the pIC50 is 7.48. In series [3], the “effectiveness in treatment of CNS trauma/damage (in words)” value was “effective”. For the compound `COc1ccc(C2=NCC(=O)N(C)c3ccc(Cl)cc32)cc1` [Ro5-6669, 7-Chloro-1,3-dihydro-4'-methoxy-1-methyl-5-phenyl-2H-1,4-benzodiazepin-2-one], the pIC50 in series [6] was 7.73. For the same compound, the “effectiveness for treatment” value in [7] is reported as “effective”.

Consider `CN1C(=O)CN=C(c2ccc(Cl)cc2Cl)c2cc(Cl)ccc21` [Ro5-6900, 2',4',7-Trichloro-1,3-dihydro-1-methyl-5-phenyl-2H-1,4-benzodiazepin-2-one], for which, in series [6], the pIC50 is 8.00. The “effectiveness for treatment” value in [7] is “effective”.

With `CN1C(=O)CN=C(c2ccc(Cl)cc2Cl)c2cc(Cl)ccc21` [Ro5-6902, 4',6',7-Trichloro-1,3-dihydro-1-methyl-5-phenyl-2H-1,4-benzodiazepin-2-one], the pIC50 in series [6] is 7.63. For the same compound, the “effectiveness for treatment” value in series [7] is reported as “effective”. Turning to `C=CCN1C(=O)CN=C(c2ccc(Cl)cc2)c2cc(Cl)ccc21` [Ro5-6945, 1-Allyl-4',7-dichloro-1,3-dihydro-5-phenyl-2H-1,4-benzodiazepin-2-one], the pIC50 in series [6] is 7.84. Besides, in series [7], the “effectiveness for treatment” value was “effective”. `CCN1C(=O)CN=C(c2ccc(Cl)cc2)c2cc(Cl)ccc21` [Ro5-6993, 4',7-Dichloro-1-ethyl-1,3-dihydro-5-phenyl-2H-1,4-benzodiazepin-2-one]: the pIC50 in series [6] was 8.21. Also, the “effectiveness for treatment” value in [7] is “effective”. With `CN1C(=O)CN=C(c2c(Cl)cccc2Cl)c2cc(Cl)ccc21` [Ro7-5520, 2',6',7-Trichloro-1,3-dihydro-1-methyl-5-phenyl-2H-1,4-benzodiazepin-2-one], the pIC50 in series [6] is 7.03. `CC(C)(C)OC(=O)c1ncn2c1[C@@H]1CCCN1C(=O)c1c(Br)cccc1-2` [Rol6-6028] had a negative-log IC50 (pIC50) in series [2] below 5.00. In series [3], the “effectiveness in treatment of CNS trauma/damage (in words)” value is “inactive in the treatment of CNS damage”. With `OC[C@@H](O)[C@@H](O)[C@H](O)[C@H](O)CO` [mannitol], the adverse effects entry in series [8] is “severe rebound cerebral edema”. On to `O=C1C(CC[S+]([O-])c2ccccc2)C(=O)N(c2ccccc2)N1c1ccccc1` (centres unmarked) [sulfinpyrazone], for which the “effect on platelet aggregation” value in the series with platelet aggregation was “inhibit platelet aggregation”. Turning to `Clc1ccccc1CN1CCc2sccc2C1` [ticlopidine], the “effect on platelet aggregation” value in the series with platelet aggregation was “inhibit platelet aggregation”. In the case of heparin, the adverse effects entry in series [8] was “high risk of brain and/or systemic hemorrhage”.

What is called pIC50 is −log10 of the IC50, conventionally taken in molar units.
